Values quoted from earlier work in patent US11707464B2, “Methods of treating heavy menstrual bleeding” (AbbVie Inc., priority 2013, dated 2023).

System: women with symptomatic uterine fibroids
Conditions: 185 women with HMB associated with uterine fibroids; through 6 months; cited from earlier work

## CCNC(=O)[C@@H]1CCCN1C(=O)[C@H](CCCN=C(N)N)NC(=O)[C@H](CC(C)C)NC(=O)[C@@H](Cc1c[nH]c2ccccc12)NC(=O)[C@H](Cc1ccc(O)cc1)NC(=O)[C@H](CO)NC(=O)[C@H](Cc1c[nH]c2ccccc12)NC(=O)[C@H](Cc1cnc[nH]1)NC(=O)[C@@H]1CCC(=O)N1 [deslorelin]
  efficacy (reduction in uterine bleeding and volume) when dosed with low-dose transdermal E2: maintained
